Experiments:
[1] = target: PSMA (Homo sapiens, UniProt Q04609); test: In vitro competitive binding assay
[2] = tested on: LNCaP xenograft; test: Biodistribution of 68Ga-labeled compounds in mice bearing LNCaP xenograft; type: in vivo; details: 1 h p.i.
Protocol: All chemicals and solvents were obtained from commercial sources, and used without further purification. PSMA-targeted peptides were synthesized using a solid phase approach on an AAPPTec (Louisville, KY) Endeavor 90 peptide synthesizer. Purification of peptides was performed on an Agilent 1260 Infinity II Preparative System equipped with a model 1260 Infinity II preparative binary pump, a model 1260 Infinity variable wavelength detector (set at 220 nm), and a 1290 Infinity II preparative open-bed fraction collector. The HPLC column used was a preparative column (Gemini, NX—C18, 5 μ, 50×30 mm) purchased from Phenomenex. The collected HPLC eluates containing the desired peptide were lyophilized using a Labconco (Kansas City, MO) FreeZone 4.5 Plus freeze-drier. Mass analyses were performed using a Waters LC-MS system with an ESI ion source. C18 Sep-Pak cartridges (1 cm^3, 50 mg) were obtained from Waters (Milford, MA). ^68Ga was eluted from an iThemba Labs (Somerset West, South Africa) generator. Radioactivity of ^68Ga-labeled peptides was measured using a Capintec (Ramsey, NJ) CRC®-25R/W dose calibrator, and the radioactivity of mouse tissues collected from biodistribution studies were counted using a Perkin Elmer (Waltham, MA) Wizard2 2480 automatic gamma counter.

Chain of PSMA (Q04609 whole entry): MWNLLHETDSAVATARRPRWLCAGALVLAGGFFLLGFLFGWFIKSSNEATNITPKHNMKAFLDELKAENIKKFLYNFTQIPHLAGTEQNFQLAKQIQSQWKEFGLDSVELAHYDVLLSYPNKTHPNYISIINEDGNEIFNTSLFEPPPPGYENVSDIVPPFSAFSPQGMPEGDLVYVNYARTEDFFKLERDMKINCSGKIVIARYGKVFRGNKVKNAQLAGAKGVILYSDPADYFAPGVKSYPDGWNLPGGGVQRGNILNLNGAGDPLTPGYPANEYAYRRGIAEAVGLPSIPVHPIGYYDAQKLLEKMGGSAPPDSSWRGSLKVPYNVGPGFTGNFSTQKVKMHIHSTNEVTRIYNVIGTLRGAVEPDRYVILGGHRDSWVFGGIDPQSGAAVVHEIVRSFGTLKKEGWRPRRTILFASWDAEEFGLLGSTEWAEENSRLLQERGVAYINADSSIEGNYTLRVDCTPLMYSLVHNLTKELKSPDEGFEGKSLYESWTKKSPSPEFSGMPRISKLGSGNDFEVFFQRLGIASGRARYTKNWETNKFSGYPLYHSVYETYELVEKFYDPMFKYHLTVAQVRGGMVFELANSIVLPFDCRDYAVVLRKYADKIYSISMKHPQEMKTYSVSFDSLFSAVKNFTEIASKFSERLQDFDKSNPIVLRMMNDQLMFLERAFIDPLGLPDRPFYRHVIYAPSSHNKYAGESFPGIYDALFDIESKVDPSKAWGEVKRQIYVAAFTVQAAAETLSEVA

Row | Biodistribution, Adrenal (Avg) [2] | Biodistribution, Blood (Avg) [2] | Biodistribution, Bone (Avg) [2] | Biodistribution, Brain (Avg) [2] | Biodistribution, Fat (Avg) [2] | Biodistribution, Heart (Avg) [2] | Biodistribution, Intestine (Avg) [2] | Biodistribution, Kidney (Avg) [2] | Biodistribution, LNCaP tumor (Avg) [2] | Biodistribution, Liver (Avg) [2] | Biodistribution, Lungs (Avg) [2] | Biodistribution, Muscle (Avg) [2] | Biodistribution, Pancreas (Avg) [2] | Biodistribution, Salivary gland (Avg) [2] | Biodistribution, Spleen (Avg) [2] | Biodistribution, Stomach (Avg) [2] | Biodistribution, Testes (Avg) [2] | Biodistribution, Urine (Avg) [2] | Biodistribution, Seminal (Avg) [2] | Biodistribution, Thyroid (Avg) [2] | Structure (SMILES) | also measured
1 |  |  |  |  |  |  |  |  |  |  |  |  |  |  |  |  |  |  |  |  | O=C(O)CCC[C@H](NC(=O)N[C@@H](CSC[C@H](NC(=O)[C@H](Cc1c2ccccc2cc2ccccc12)NC(=O)C1CCC(CNC(=O)CN2CCN(CC(=O)O)CCN(CC(=O)O)CCN(CC(=O)O)CC2)CC1)C(=O)O)C(=O)O)C(=O)O (some centres unmarked) [CCZ02032] | Ki [1]: 3.2 nM
2 |  |  |  |  |  |  |  |  |  |  |  |  |  |  |  |  |  |  |  |  | O=C(O)CCC[C@H](OC(=O)N[C@@H](CCCCNC(=O)[C@H](Cc1c2ccccc2cc2ccccc12)NC(=O)[C@H]1CC[C@H](CNC(=O)CN2CCN(CC(=O)O)CCN(CC(=O)O)CCN(CC(=O)O)CC2)CC1)C(=O)O)C(=O)O [AR-2-050-1, DOTA-PSMA-Aad-carbamate] | Ki [1]: 8.99 nM
3 | 1.22 % ID/g | 2.42 % ID/g | 0.34 % ID/g | 0.05 % ID/g | 0.56 % ID/g | 0.85 % ID/g | 1.36 % ID/g | 27.16 % ID/g | 11.86 % ID/g | 1.31 % ID/g | 1.93 % ID/g | 0.49 % ID/g | 0.34 % ID/g | 1.05 % ID/g | 0.61 % ID/g | 0.22 % ID/g | 0.79 % ID/g | 237.55 % ID/g |  |  | O=C(O)CCC[C@H](OC(=O)N[C@@H](CCCCNC(=O)[C@H](Cc1c2ccccc2cc2ccccc12)NC(=O)[C@H]1CC[C@H](CNC(=O)CCc2ccc(O)c(CN(CCN(CC(=O)O)Cc3cc(CCC(=O)O)ccc3O)CC(=O)O)c2)CC1)C(=O)O)C(=O)O.[68Ga] [^68Ga-AR-113-1] | Biodistribution, Lacrimal (Avg) [2]: 0.13 % ID/g
4 |  |  |  |  |  |  |  |  |  |  |  |  |  |  |  |  |  |  |  |  | O=C(O)CC[C@H](NC(=O)N[C@@H](C[C@@H]1C[C@H]1CNC(=O)[C@H](Cc1c2ccccc2cc2ccccc12)NC(=O)[C@H]1CC[C@H](CNC(=O)CN2CCN(CC(=O)O)CCN(CC(=O)O)CCN(CC(=O)O)CC2)CC1)C(=O)O)C(=O)O [ADZ-4-101] | Ki [1]: 2.42 nM
5 | 0.29 % ID/g | 0.72 % ID/g | 0.13 % ID/g | 0.02 % ID/g | 0.16 % ID/g | 0.57 % ID/g | 0.08 % ID/g | 2.20 % ID/g | 0.89 % ID/g | 0.23 % ID/g | 0.21 % ID/g | 0.23 % ID/g | 0.16 % ID/g | 0.40 % ID/g | 0.34 % ID/g | 0.14 % ID/g | 0.17 % ID/g | 439.81 % ID/g | 6.65 % ID/g | 2.49 % ID/g | O=C(O)CSCC(NC(=O)NC(Cc1cn(CCNC(=O)C(Cc2c3ccccc3cc3ccccc23)NC(=O)C2CCC(CNC(=O)CN3CCN(CC(=O)O)CCN(CC(=O)O)CCN(CC(=O)O)CC3)CC2)nn1)C(=O)O)C(=O)O.[68Ga] (centres unmarked) [^68Ga-CCZ01186] | 
6 | 0.36 % ID/g | 0.58 % ID/g | 0.15 % ID/g | 0.02 % ID/g | 0.12 % ID/g | 0.18 % ID/g | 0.40 % ID/g | 4.10 % ID/g | 14.08 % ID/g | 0.27 % ID/g | 0.43 % ID/g | 0.15 % ID/g | 0.22 % ID/g | 0.27 % ID/g | 0.23 % ID/g | 0.07 % ID/g | 0.51 % ID/g | 343.93 % ID/g | 11.24 % ID/g | 0.16 % ID/g | O=C(O)CCCC(NC(=O)NC(COCCNC(=O)C(Cc1c2ccccc2cc2ccccc12)NC(=O)C1CCC(CNC(=O)CN2CCN(CC(=O)O)CCN(CC(=O)O)CCN(CC(=O)O)CC2)CC1)C(=O)O)C(=O)O.[68Ga] (centres unmarked) [^68Ga-CCZ02011] | Biodistribution, Lacrimal (Avg) [2]: 0.33 % ID/g
7 | 0.19 % ID/g | 0.43 % ID/g | 0.07 % ID/g | 0.01 % ID/g | 0.07 % ID/g | 0.11 % ID/g | 0.16 % ID/g | 2.18 % ID/g | 4.84 % ID/g | 0.15 % ID/g | 0.32 % ID/g | 0.07 % ID/g | 0.08 % ID/g | 0.12 % ID/g | 0.12 % ID/g | 0.03 % ID/g | 0.14 % ID/g | 384.68 % ID/g | 0.47 % ID/g | 0.13 % ID/g | O=C(O)CCCC(NC(=O)NC(CNC(=O)CNC(=O)C(Cc1c2ccccc2cc2ccccc12)NC(=O)C1CCC(CNC(=O)CN2CCN(CC(=O)O)CCN(CC(=O)O)CCN(CC(=O)O)CC2)CC1)C(=O)O)C(=O)O.[68Ga] (centres unmarked) [68Ga-CCZ01198] | 
8 | 0.53 % ID/g | 0.67 % ID/g | 0.13 % ID/g | 0.03 % ID/g | 0.17 % ID/g | 0.18 % ID/g | 0.25 % ID/g | 6.91 % ID/g | 18.88 % ID/g | 0.21 % ID/g | 0.58 % ID/g | 0.10 % ID/g | 0.13 % ID/g | 0.22 % ID/g | 0.24 % ID/g | 0.07 % ID/g | 0.22 % ID/g | 613.72 % ID/g | 0.27 % ID/g | 0.20 % ID/g | O=C(O)CCCC(NC(=O)NC(CCCONC(=O)C(Cc1c2ccccc2cc2ccccc12)NC(=O)C1CCC(CNC(=O)CN2CCN(CC(=O)O)CCN(CC(=O)O)CCN(CC(=O)O)CC2)CC1)C(=O)O)C(=O)O.[68Ga] (centres unmarked) [^68Ga-CCZ02018] | 
9 | 0.65 % ID/g | 0.98 % ID/g | 0.14 % ID/g | 0.03 % ID/g | 0.27 % ID/g | 0.27 % ID/g | 0.79 % ID/g | 7.33 % ID/g | 9.12 % ID/g | 0.35 % ID/g | 0.70 % ID/g | 0.14 % ID/g | 0.15 % ID/g | 0.34 % ID/g | 0.24 % ID/g | 0.09 % ID/g | 0.23 % ID/g | 311.63 % ID/g | 0.13 % ID/g | 0.29 % ID/g | O=C(O)CSCC(NC(=O)NC(CNC(=O)CNC(=O)C(Cc1c2ccccc2cc2ccccc12)NC(=O)C1CCC(CNC(=O)CN2CCN(CC(=O)O)CCN(CC(=O)O)CCN(CC(=O)O)CC2)CC1)C(=O)O)C(=O)O.[68Ga] (centres unmarked) [68Ga-CCZ01194] | 
10 | 0.98 % ID/g | 3.91 % ID/g | 0.23 % ID/g | 0.07 % ID/g | 0.62 % ID/g | 1.03 % ID/g | 0.56 % ID/g | 4.02 % ID/g | 1.43 % ID/g | 0.81 % ID/g | 2.15 % ID/g | 0.41 % ID/g | 0.38 % ID/g | 1.56 % ID/g | 0.61 % ID/g | 0.19 % ID/g | 0.82 % ID/g | 367.12 % ID/g | 0.85 % ID/g | 0.67 % ID/g | O=C(O)CSCC(NC(=O)NC(Cc1ccc(NC(=O)C(Cc2c3ccccc3cc3ccccc23)NC(=O)C2CCC(CNC(=O)CN3CCN(CC(=O)O)CCN(CC(=O)O)CCN(CC(=O)O)CC3)CC2)cc1)C(=O)O)C(=O)O.[68Ga] (centres unmarked) [^68Ga-CCZ01188] | 

Reference: patent US20240018110A1, “RADIOLABELED COMPOUNDS TARGETING THE PROSTATE-SPECIFIC MEMBRANE ANTIGEN” (THE UNIVERSITY OF BRITISH COLUMBIA, priority 2020, published 2024)
